Results from US20050256103A1, “Indole derivative having piperidine ring” (Eisai Co., Ltd., priority 2004, published 2005).
Read-outs that look alike come from different tables or passages of the source.

What was measured:
[1] = biological target: T1, serotonin 1A receptor (Mus musculus, UniProt Q64264); experiment: Antagonistic effect on serotonin 1A receptor agonist (8-OH-DPAT)-induced hypothermia in mouse; format: in vivo; details: CD-1 (ICR) male mice; inhibition of hypothermia by 8-OH-DPAT 0.5 mg/kg sc; test substance 15 minutes before agonist
T1 construct: into the rectum of CD-1 (ICR) male mice (25-45 g); from tissue; host or cells: living CD-1 (ICR) male mice (in vivo)
T1 sequence (Q64264 1-421): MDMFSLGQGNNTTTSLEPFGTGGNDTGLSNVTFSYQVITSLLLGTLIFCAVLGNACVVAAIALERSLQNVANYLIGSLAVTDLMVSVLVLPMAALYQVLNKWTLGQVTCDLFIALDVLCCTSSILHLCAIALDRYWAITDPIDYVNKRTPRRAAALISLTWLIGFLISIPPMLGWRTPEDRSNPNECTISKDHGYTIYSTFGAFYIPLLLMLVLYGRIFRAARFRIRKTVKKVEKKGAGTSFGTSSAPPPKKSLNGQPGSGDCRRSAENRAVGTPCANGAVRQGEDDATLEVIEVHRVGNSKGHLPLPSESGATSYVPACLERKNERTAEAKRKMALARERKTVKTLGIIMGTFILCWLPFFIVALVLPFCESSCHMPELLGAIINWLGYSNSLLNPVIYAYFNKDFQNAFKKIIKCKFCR
Protocol: (1) A thermistor probe was inserted at a depth of approximately 2 cm into the rectum of CD-1 (ICR) male mice (25-45 g), so as to measure the body temperature thereof. Body temperature is decreased by subcutaneous administration of serotonin 1A receptor agonist (8-hydroxy-dipropylaminotetralin (8-OH-DPAT) 0;5 mg/kg. Since a serotonin 1A antagonist inhibits such action, the antagonistic effect of a test substance to a serotonin 1A receptor was evaluated using the inhibitory effect of the hypothermia as an index. The test results are shown in Table 2 indicated below. A test substance was administered 15 minutes before the administration of the serotonin 1A agonist. A serotonin 1A partial agonist alone decreases the body temperature, depending on the degree of the agonistic action thereof. In addition, it has a weak antagonistic effect on 8-OH-DPAT-induced hypothermia.

[2] = biological target: T2, 5-HT1A receptor (Sus scrofa, UniProt A0A4X1UTF5); experiment: Affinity for serotonin 1A receptor: inhibition of [3H]MPPF binding in swine hippocampal membrane fraction; details: for IC50: [3H]MPPF 0.5 nM, swine hippocampal membrane, 37°C 30 min; for L/H ratio: low affinity IC50 divided by high affinity IC50, 1 or smaller = no intrinsic activity, 2 or greater = intrinsic activity
T2 construct: Swine hippocampus was homogenized in a 50 mM Tris-Hcl buffer; from tissue; host or cells: swine hippocampus, membrane fraction
T2 sequence (A0A4X1UTF5 1-422): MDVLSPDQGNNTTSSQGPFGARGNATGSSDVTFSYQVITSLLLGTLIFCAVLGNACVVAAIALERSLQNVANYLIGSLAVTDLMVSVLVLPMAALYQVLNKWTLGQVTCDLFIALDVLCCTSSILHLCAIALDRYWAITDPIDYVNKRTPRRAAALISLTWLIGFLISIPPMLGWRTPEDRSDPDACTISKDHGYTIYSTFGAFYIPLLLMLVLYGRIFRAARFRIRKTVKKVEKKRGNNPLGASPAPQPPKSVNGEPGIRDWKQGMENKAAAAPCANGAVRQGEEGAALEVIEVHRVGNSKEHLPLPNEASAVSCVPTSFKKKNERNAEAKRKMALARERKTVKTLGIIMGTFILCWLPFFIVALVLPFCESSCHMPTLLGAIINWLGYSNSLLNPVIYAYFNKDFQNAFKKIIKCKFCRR
Text: (1) The affinity of a test substance for a 5-HT1A receptor was examined by an inhibition experiment, in which the inhibitory effect of the test substance against the binding of [^3H]-4-(2′-methoxy)phenyl-1-(2′-(N-2″-pyridinyl)-p-fluorobenzamido)ethyl-piperazine (MPPF) that selectively binds to the 5-HT1A receptor in a swine hippocampal membrane fraction was examined. The 5-HT1A receptor that is a G-protein binding receptor becomes a G-protein binding state with addition of MgCl2. In contrast, it becomes a G-protein non-binding state with addition of guanylylimido diphosphate (Gpp(NH)p). […] Thus, both the affinity of a test substance to the receptor that was in a state of not binding to the G-protein and the affinity of the test substance to the receptor that was in a state of binding to the G-protein were obtained. Then, the obtained values were compared to each other, so as to estimate the level of the intrinsic activity of the test substance. Theoretically, when the value (L/H) obtained by dividing the affinity of a test substance to the receptor that is in a low affinity state (IC50 value) by the affinity of a test substance to the receptor that is in a high affinity state (IC50 value) is 1 or less, the intrinsic activity thereof is zero. The greater this value, the higher the intrinsic activity that can be obtained.
Swine hippocampus was homogenized in a 50 mM Tris-Hcl buffer (pH 7.4; hereinafter referred to as buffer A) that had been cooled on ice. The suspension was centrifuged at 40,000×g for 15 minutes. The obtained pellet was suspended in buffer solution A, and the thus obtained solution was then centrifuged at 40,000×g for 15 minutes. The same operation was repeated 2 or 3 times. The finally obtained pellet was suspended in a buffer solution A in an amount 10 times the wet weight of the swine hippocampus, so as to obtain a membrane fraction. The obtained membrane fraction was stored at −80° C. until use.
A mixture (0.5 ml) used for incubation comprised an appropriate amount of the membrane fraction, a test substance with a desired concentration, MgCl2 (final concentration: 10 mM) or Gpp(NH)p (final concentration: 1 mM), [^3H]MPPF (final concentration: 0.5 nM), dimethyl sulfoxide (final concentration: 1% (v/v)), and a 50 mM Tris-Hcl buffer (pH 7.4). The reaction was initiated with addition of the membrane fraction, and the mixture was incubated at 37° C. for 30 minutes. After completion of the incubation, the mixture was subjected to vacuum filtration with a glass filter, using Cell Harvester. The filter was washed with buffer solution A that had been cooled on ice. Thereafter, radioactivity binding to the receptor was measured with a liquid scintillation counter. Non-specific binding was defined as binding detected in the presence of 10 μM WAY-100,635.

[3] = receptor in high affinity (G-protein binding, MgCl2 10 mM) state, read-out: High affinity IC50
[4] = receptor in low affinity (G-protein non-binding, Gpp(NH)p 1 mM) state, read-out: Low affinity IC50

## CCc1nc2ccc(OC)c(CCN3CCC(n4ccc5ccc(C(N)=O)cc54)CC3)c2o1 [Compound 5]
[1]
  ED50: 0.24 mg/kg, sc
[2]; [3]
  IC50: 0.57 nM
[2]; [4]
  IC50: 0.45 nM
[2]
  L/H ratio: 0.8

## CCc1nc2cc(CCN3CCC(n4ccc5ccc(C(N)=O)cc54)CC3)c(OC)cc2o1 [Compound 6, 1-{1-[2-(2-ethyl-6-methoxybenzoxazol-5-yl)ethyl]piperidin-4-yl}-1H-indole-6-carboxamide]
[1]
  ED50: 0.35 mg/kg, sc
[2]; [3]
  IC50: 0.2 nM
[2]; [4]
  IC50: 0.2 nM
[2]
  L/H ratio: 1

## COc1ccc2oc(C)nc2c1CCN1CCC(n2ccc3ccc(C(N)=O)cc32)CC1 [Compound 7, 1-{1-[2-(5-methoxy-2-methylbenzoxazol-4-yl)ethyl]piperidin-4-yl)-1H-indole-6-carboxamide]
[1]
  ED50: 0.38 mg/kg, sc
[2]; [3]
  IC50: 0.41 nM
[2]; [4]
  IC50: 0.3 nM
[2]
  L/H ratio: 0.7

## COc1cc2nc(C)oc2cc1CCN1CCC(n2ccc3ccc(C(N)=O)cc32)CC1 [Compound 8, 1-{1-[2-(5-methoxy-2-methylbenzoxazol-6-yl)ethyl]piperidin-4-yl}-1H-indole-6-carboxamide]
[1]
  ED50: 0.07 mg/kg, sc
[2]; [3]
  IC50: 0.22 nM
[2]; [4]
  IC50: 0.23 nM
[2]
  L/H ratio: 1

## COc1cc2c(cc1CCN1CCC(n3ccc4ccc(C(N)=O)cc43)CC1)C(=O)N(C)CCO2 [Compound 9, 1-{1-[2-(8-methoxy-4-methyl-5-oxo-2,3,4,5-tetrahydrobenzo[f][1,4]oxazepin-7-yl)ethyl]piperidin-4-yl}-1H-indole-6-carboxamide]
[1]
  ED50: 0.3 mg/kg, sc
[2]; [3]
  IC50: 0.17 nM
[2]; [4]
  IC50: 0.13 nM
[2]
  L/H ratio: 0.8

## COc1ccc2c(c1CCN1CCC(n3ccc4ccc(C(N)=O)cc43)CC1)OC(C)(C)CC2=O [Compound 22, 1-{1-[2-(7-methoxy-2,2-dimethyl-4-oxochroman-8-yl)ethyl]piperidin-4-yl}-1H-indole-6-carboxamide]
[1]
  ED50: 0.1 mg/kg, sc
[2]; [3]
  IC50: 0.13 nM
[2]; [4]
  IC50: 0.1 nM
[2]
  L/H ratio: 0.8

## COc1cc2c(cc1CCN1CCC(n3ccc4ccc(C(N)=O)cc43)CC1)C(=O)CC(C)(C)O2 [Compound 24, 1-{1-[2-(7-methoxy-2,2-dimethyl-4-oxochroman-6-yl)ethyl]piperidin-4-yl}-1H-indole-6-carboxamide]
[1]
  ED50: 0.3 mg/kg, sc
[2]; [3]
  IC50: 0.22 nM
[2]; [4]
  IC50: 0.17 nM
[2]
  L/H ratio: 0.8

## COc1ccc2c(c1CCN1CCC(n3ccc4ccc(C(N)=O)cc43)CC1)CCC2=O [Compound 25, 1-{1-[2-(5-methoxy-1-oxoindan-4-yl)ethyl]piperidin-4-yl}-1H-indole-6-carboxamide]
[1]
  ED50: 0.1 mg/kg, sc
[2]; [3]
  IC50: 0.18 nM
[2]; [4]
  IC50: 0.16 nM
[2]
  L/H ratio: 0.9

## COc1cc2c(cc1CCN1CCC(n3ccc4ccc(C(N)=O)cc43)CC1)C(=O)CC2 [Compound 26, 1-{1-[2-(6-methoxy-3-oxoindan-5-yl)ethyl]piperidin-4-yl}-1H-indole-6-carboxamide]
[1]
  ED50: 0.25 mg/kg, sc
[2]; [3]
  IC50: 0.16 nM
[2]; [4]
  IC50: 0.2 nM
[2]
  L/H ratio: 1.3

## COc1ccc2sc(C)nc2c1CCN1CCC(n2ccc3ccc(C(N)=O)cc32)CC1 [Compound 27, 1-{1-[2-(5-methoxy-2-methylbenzothiazol-4-yl)ethyl]piperidin-4-yl}-1H-indole-6-carboxamide]
[1]
  ED50: 0.42 mg/kg, sc
[2]; [3]
  IC50: 0.23 nM
[2]; [4]
  IC50: 0.26 nM
[2]
  L/H ratio: 1.1

## COc1cc2nc(C)sc2cc1CCN1CCC(n2ccc3ccc(C(N)=O)cc32)CC1 [Compound 28, 1-{1-[2-(5-methoxy-2-methylbenzothiazol-6-yl)ethyl]piperidin-4-yl}-1H-indole-6-carboxamide]
[1]
  ED50: 0.02 mg/kg, sc
[2]; [3]
  IC50: 0.14 nM
[2]; [4]
  IC50: 0.19 nM
[2]
  L/H ratio: 1.4

## COc1ccc2ncccc2c1CCN1CCC(n2ccc3ccc(C(N)=O)cc32)CC1 [Compound 30, 1-{1-[2-(6-methoxyquinolin-5-yl)ethyl]piperidin-4-yl}-1H-indole-6-carboxamide]
[1]
  ED50: 0.62 mg/kg, sc
[2]; [3]
  IC50: 0.2 nM
[2]; [4]
  IC50: 0.19 nM
[2]
  L/H ratio: 1

## COc1cc2c(cc1CCN1CCC(n3ccc4ccc(C(N)=O)cc43)CC1)OCCO2 [Compound 31, 1-{1-[2-(7-methoxy-2,3-dihydrobenz[1,4]dioxin-6-yl)ethyl]piperidin-4-yl}-1H-indole-6-carboxamide]
[1]
  ED50: 0.04 mg/kg, sc
[2]; [3]
  IC50: 0.16 nM
[2]; [4]
  IC50: 0.15 nM
[2]
  L/H ratio: 0.9

## COc1ccc2c(c1CCN1CCC(n3ccc4ccc(C(N)=O)cc43)CC1)OCCO2 [Compound 32, 1-{1-[2-(6-methoxy-2,3-dihydrobenz[1,4]dioxin-5-yl)ethyl]piperidin-4-yl}-1H-indole-6-carboxamide]
[1]
  ED50: 0.04 mg/kg, sc
[2]; [3]
  IC50: 0.26 nM
[2]; [4]
  IC50: 0.25 nM
[2]
  L/H ratio: 1

## COc1cc2c(cc1CCN1CCC(n3ccc4ccc(C(N)=O)cc43)CC1)C(=O)N(C)CC2 [Compound 33, 1-{1-[2-(6-methoxy-2-methyl-1-oxo-1,2,3,4-tetrahydroisoquinoline-7-yl)ethyl]piperidin-4-yl}-1H-indole-6-carboxamide]
[1]
  ED50: 0.12 mg/kg, sc
[2]; [3]
  IC50: 0.17 nM
[2]; [4]
  IC50: 0.12 nM
[2]
  L/H ratio: 0.7

## COc1ccc2c(c1CCN1CCC(n3ccc4ccc(C(N)=O)cc43)CC1)CCN(C)C2=O [Compound 34, 1-(1-(2-(6-methoxy-2-methyl-1-oxo-1,2,3,4-tetrahydroisoquinolin-5-yl)ethyl)piperidin-4-yl)-1H-indole-6-carboxamide]
[1]
  ED50: 0.37 mg/kg, sc
[2]; [3]
  IC50: 0.26 nM
[2]; [4]
  IC50: 0.2 nM
[2]
  L/H ratio: 0.8

## COc1ccc2c(=O)ccoc2c1CCN1CCC(n2ccc3ccc(C(N)=O)cc32)CC1 [Compound 35, 1-{1-[2-(7-methoxy-4-oxo-4H-chromen-8-yl)ethyl]piperidin-4-yl}-1H-indole-6-carboxamide]
[1]
  ED50: 0.2 mg/kg, sc
[2]; [3]
  IC50: 0.27 nM
[2]; [4]
  IC50: 0.23 nM
[2]
  L/H ratio: 0.9
